Measured values: patent US9376382B2, “N-substituted isopropyldimethyl azulene sulfonamide derivatives, and preparation method and use thereof” (Sichuan Guokang Pharmaceutical Co., Ltd., priority 2011, dated 2016)
Each block holds one compound with its values, some of them ahead of it.

What was measured:
[1] = Intense light irradiation test (4500LX ± 500LX), stability study; format: physicochemical; conditions: for Appearance Day 0: Day 0, cell wraps; for Appearance Day 0 / Appearance Day 5 / Appearance Day 10: first line given; for Appearance Day 5: Day 5, cell wraps; for Appearance Day 10: Day 10, cell wraps
Experimental: (§1) The test samples were open-stored in “adjustable light boxes” under the conditions of illumination of 4500LX±500LX for 10 days, and taken and detected on Day 5 and Day 10 with regards to dry items. • The characteristics, especially colour change was observed. • Melting points were measured by an automatic melting point apparatus. • By self-reflection, TLC is used to observe whether the spot numbers were increased after 5 days and 10 days.

[2] = Stability studies (light, humidity, heat), overall comparison
Experimental: (§2) The test samples were open-stored in culture dishes at 60° C. for 10 days, and taken and detected on Day 5 and Day 10. • The characteristics, especially colour change were observed. • Melting points were measured by automatic melting point apparatus. • By self-reflection, TLC is used to observe whether the spot numbers were increased after 5 days and 10 days.
The test samples were open-stored in closed constant humidity desiccators under the condition of 25° C. and relative humidity of 90%+5% for 10 days, and taken and detected on Day 5 and Day 10. Meanwhile, each sample was accurately weighed before and after test.
as §1

[3] = High humidity test (25° C., relative humidity 90% ± 5%), stability study; format: physicochemical; conditions: RH 90% ± 5%; for Appearance Day 0: Day 0, cell wraps; for Appearance Day 0 / Appearance Day 5 / Appearance Day 10: first line given; for Appearance Day 5: Day 5, cell wraps; for Appearance Day 10: Day 10, cell wraps;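 as to all read-outs here: samples kept uncovered in sealed humidity desiccators, appearance judged mainly by colour change, melting point on an automatic apparatus, TLC checked for extra spots versus start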
[4] = High-temperature test (60° C.), stability study; format: physicochemical; conditions: open-stored; for Appearance Day 5: Day 5, cell wraps; for Appearance Day 5 / Appearance Day 10: first line given; for Appearance Day 10: Day 10, cell wraps;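 as to all read-outs here: samples kept uncovered in dishes at 60 °C for up to 10 days and examined on Day 5 and Day 10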
Experimental: as §2

[5] = tested on: ethanol-induced gastric ulcer; test: Anhydrous ethanol-induced gastric ulcer in mice; format: in vivo, Kunming mice; design: key to Gastri ulcer score (X ± SD) / Ulcer score (X ± SD) / Gastric ulcer score (X ± SD): summed pathology score: congestion 1, hemorrhage/erosion 1, linear erosion 3; conditions: for Inhibition rate (%): inhibition rate of ulcer vs model group; for Gastric ulcer score (X ± SD) / Gastri ulcer score (X ± SD) / Ulcer score (X ± SD): mice, intragastric once a day for five days; for anti-gastric ulcer effect in words: ethanol-induced gastric ulcer in mice, compared to the model group; for Gastri ulcer score (X ± SD): dose equimolar to azulene sulfonate sodium 3.0 mg/kg (Omeprazole 13.4 mg/kg), model group 13.00 ± 1.77; for Ulcer score (X ± SD): equimolar doses, model group 20.33 ± 12.23
Experimental: Kunming mice, half male and half female, weighing 18-22 g, provided by the West China Animal Center
(1) Azulene sodium sulphonate was added with 0.5% CMC to prepare a suspension with concentration of 0.15 mg/ml.
(2) 20 mg of Omeprazole was added with 0.5% CMC to prepare a suspension with concentration of 0.67 mg/ml.
Kunming mice were randomly grouped according the body weight (one model control group or negative control group, one Omeprazole control group or positive control group, one Azulene sodium sulphonate control group, twelve test drug groups), eight mice for each group, half male and half female.
Administration: Model control group was administrated intragastrically with 0.5% CMC solution at a dose of 0.4 ml/20 g; Omeprazole control group was administrated intragastrically with Omeprazole at a dose of 0.4 ml/20 g, Azulene sodium sulphonate control group and each test drug groups were administrated intragastrically with their respective drug at a dose of 0.4 ml/20 g. The mice in each group were administrated once a day for successive five days. 0.5 hour after final administration, the mice in each group were administrated intragastrically with 0.5 ml of anhydrous ethanol, one hour later the mice were executed and dissected, and their stomaches were taken, washed and scored according to the pathological degree. For local congestion and rubefaction, score was 1; for petechial hemorrhage or erosion, score was respectively 1, for each linear erosion, score was 3. Statistical analysis was performed. Ulcer scores were calculated, significant differences between the groups were compared and the inhibition rates of ulcer were calculated [Inhibition rate of ulcer=(ulcer score of model group−ulcer score of drug administration group)/ulcer score of model group].

[6] = Table 6, model group 17.86 ± 8.43
[7] = Table 7, model group 19.71 ± 7.18

SMILES: Cc1cc(S(=O)(=O)NC(C)C)c2c(C)ccc(C(C)C)cc1-2 [4c, N,5-diisopropyl-3,8-dimethyl-1-azulene sulfonamide]
- Melting point Day 0 [1]: 127.5-130.0 °C
- Spot numbers on TLC Day 0 [1]: 1
- Appearance Day 0 [1]: purple
- Melting point Day 5 [1]: 127.0-129.5 °C
- Spot numbers on TLC Day 5 [1]: 1
- Appearance Day 5 [1]: purple
- Melting point Day 10 [1]: 125.0-126.5 °C
- Spot numbers on TLC Day 10 [1]: 2
- Appearance Day 10 [1]: purple
- melting point: 128 to 130 °C
- light, humidity and heat stability in words ([2]; summary of high-temperature, high humidity and intense light tests): better light, humidity and heat stability than azulene sulfonate sodium
- Melting point Day 0 [3]: 127.5-130.0 °C
- Spot numbers on TLC Day 0 [3]: 1
- hygroscopic rate (%) Day 0 [3]: 0.95%
- Appearance Day 0 [3]: purple
- Melting point Day 5 [3]: 128.0-130.5 °C
- Spot numbers on TLC Day 5 [3]: 1
- hygroscopic rate (%) Day 5 [3]: 1.32%
- Appearance Day 5 [3]: purple
- Melting point Day 10 [3]: 128.0-130.5 °C
- Spot numbers on TLC Day 10 [3]: 1
- Appearance Day 10 [3]: purple
- Melting point Day 0 [4]: 127.5-130.0 °C
- Spot numbers on TLC Day 0 [4]: 1
- Melting point Day 5 [4]: 127.5-129.5 °C
- Spot numbers on TLC Day 5 [4]: 1
- Appearance Day 5 [4]: purple
- Melting point Day 10 [4]: 127.5-129.5 °C
- Spot numbers on TLC Day 10 [4]: 1
- Appearance Day 10 [4]: purple

SMILES: COC(=O)C(Cc1c[nH]c2ccccc12)NS(=O)(=O)C1=C2C(C)=C=C=C(C(C)C)C=C2C(C)=C1 (stereo not shown) [5d, N-2-(indol-3-methyl)-2-methoxyformyl methylene-3′,8′-dimethyl-5′-isopropyl azulene-1′-sulfonamide]
- Inhibition rate (%) ([5]; Table 6): 51.23%
- Gastric ulcer score (X ± SD) [5, 6]: 8.71 ± 4.93
- anti-gastric ulcer effect in words [5]: stronger and more significant anti-gastric ulcer capability
- melting point: 178 to 180 °C

SMILES: Cc1cc(S(=O)(=O)NC(Cc2c[nH]c3ccccc23)C(=O)O)c2c(C)ccc(C(C)C)cc1-2 (stereo not shown) [6c, N-2-(indol-3-methyl)-2-carboxymethylene-3′,8′-dimethyl-5′-isopropyl azulene-1′-sulfonamide]
- Inhibition rate (%) ([5]; Table 7): 55.05%
- Gastric ulcer score (X ± SD) [5, 7]: 8.86 ± 4.81
- anti-gastric ulcer effect in words [5]: stronger and more significant anti-gastric ulcer capability

SMILES: Cc1cc(S(=O)(=O)[O-])c2c(C)ccc(C(C)C)cc1-2.[Na+] [Azulene sulfonate sodium, 3,8-dimethyl-5-isopropyl azulene-1-sodium sulphonate, reference compound]
- Melting point Day 0 [1]: 104.0-106.0 °C
- Spot numbers on TLC Day 0 [1]: 1
- Appearance Day 0 [1]: dark blue
- Melting point Day 5 [1]: 102.5-105.5 °C
- Spot numbers on TLC Day 5 [1]: 3
- Appearance Day 5 [1]: blue
- Melting point Day 10 [1]: 98.54-103.5 °C
- Spot numbers on TLC Day 10 [1]: >4
- Appearance Day 10 [1]: light
- Inhibition rate (%) ([5]; Table 4): 45.08%
- Gastri ulcer score (X ± SD) ([5]; Table 4): 7.14 ± 4.73
- Inhibition rate (%) ([5]; Table 5): 32.56%
- Ulcer score (X ± SD) ([5]; Table 5): 13.71 ± 10.75
- Inhibition rate (%) ([5]; Table 6): 52.80%
- Gastric ulcer score (X ± SD) [5, 6]: 8.43 ± 5.74
- Inhibition rate (%) ([5]; Table 7): 52.16%
- Gastric ulcer score (X ± SD) [5, 7]: 9.43 ± 5.74
- light stability and heat stability in words ([2]; background statement, found by experiments): poor light stability and heat stability
- Melting point Day 0 [3]: 104.0-106.0 °C
- Spot numbers on TLC Day 0 [3]: 1
- hygroscopic rate (%) Day 0 [3]: 2.16%
- Appearance Day 0 [3]: dark
- Melting point Day 5 [3]: 100.5-105.5 °C
- Spot numbers on TLC Day 5 [3]: 3
- hygroscopic rate (%) Day 5 [3]: 3.69%
- Appearance Day 5 [3]: blue
- Melting point Day 10 [3]: 98.5-102.0 °C
- Spot numbers on TLC Day 10 [3]: 3
- Appearance Day 10 [3]: light
- Melting point Day 0 [4]: 104.0-106.0 °C
- Spot numbers on TLC Day 0 [4]: 1
- Melting point Day 5 [4]: 102.5-104.0 °C
- Spot numbers on TLC Day 5 [4]: 2
- Appearance Day 5 [4]: blue flake
- Melting point Day 10 [4]: 98.5-100.0 °C
- Spot numbers on TLC Day 10 [4]: 4
- Appearance Day 10 [4]: light blue

SMILES: COc1ccc2[nH]c([S+]([O-])Cc3ncc(C)c(OC)c3C)nc2c1 (stereo not shown) [Omeprazole, reference compound]
- Inhibition rate (%) ([5]; Table 4): 47.23%
- Gastri ulcer score (X ± SD) ([5]; Table 4): 6.86 ± 3.77
- Inhibition rate (%) ([5]; Table 5): 36.74%
- Ulcer score (X ± SD) ([5]; Table 5): 12.86 ± 11.89
- Inhibition rate (%) ([5]; Table 6): 59.41%
- Gastric ulcer score (X ± SD) [5, 6]: 7.25 ± 7.15
- Inhibition rate (%) ([5]; Table 7): 58.25%
- Gastric ulcer score (X ± SD) [5, 7]: 8.23 ± 3.18

Second part, led by results:

- melting point: 94 to 96 °C
SMILES: COC(=O)CCNS(=O)(=O)C1=C2C(C)=C=C=C(C(C)C)C=C2C(C)=C1 [5h, N-3-methoxyformylethyl-3′,8′-dimethyl-5′-isopropyl azulene-1′-sulfonamide]
- Inhibition rate (%) ([5]; Table 6): 50.78%
- Gastric ulcer score (X ± SD) [5, 6]: 8.79 ± 4.38
- anti-gastric ulcer effect in words [5]: stronger and more significant anti-gastric ulcer capability

- melting point: 44 to 46 °C
SMILES: CC1=C=C=C(C(C)C)C=C2C(C)=CC(S(=O)(=O)NC(CC(C)C)C(=O)O)=C12 (stereo not shown) [6b, N-2-(2-methylpropyl)-2-carboxymethylene-3′,8′-dimethyl-5′-isopropyl azulene-1′-sulfonamide]
- Inhibition rate (%) ([5]; Table 7): 50.94%
- Gastric ulcer score (X ± SD) [5, 7]: 9.67 ± 4.25
- anti-gastric ulcer effect in words [5]: stronger and more significant anti-gastric ulcer capability

- melting point: 69 to 70 °C
SMILES: CC1=C=C=C(C(C)C)C=C2C(C)=CC(S(=O)(=O)NCC(=O)N/N=C/c3cccs3)=C12 [8a]
- Inhibition rate (%) ([5]; Table 7): 48.96%
- Gastric ulcer score (X ± SD) [5, 7]: 10.06 ± 5.60
- anti-gastric ulcer effect in words [5]: stronger and more significant anti-gastric ulcer capability
